In US11279708B2, “Amidino- and amino-rocaglates as novel translation inhibitors and anticancer agents” (priority 2019, dated 2022):

Experiments:
[1] = tested on: cap-dependent translation; assay: in vitro translation of (AG)10- and (UC)10-FF/HCV/Ren mRNA reporters in Krebs-2 extracts; format: biochemical; conditions: cap-proximal (AG)10 or (UC)10
Method: Rocaglates show differing mRNA targeting spectra in translation assays. The in vitro experiments described above investigating the rocaglate-mediated inhibition of cap-dependent translation were performed at a fixed rocaglate concentration (2 μM) using a generic bicistronic mRNA reporter in Krebs-2 cell-free translation extracts (FIG. 19C). To better assess the consequences of eIF4A:polypurine clamping on the initiation process, we designed a series of bicistronic reporters harboring cap-proximal polypurine tracks of varying lengths in their 5′ leader region (FIG. 22A). […] We reasoned that these reporters would provide a sensitized readout for rocaglate-induce clamping of eIF4A at this location.
We next tested the response of mRNA reporters containing cap-proximal (AG)10 or (UC)10 sequences (FIG. 22A). […] The difference in activity observed between CR-1-31-B (23) and silvestrol 1 was not restricted to cap-proximal polypurine tracks, but also observed with reporters where the polypurine/polypyrimidine tracks were situated 15 nt downstream from the cap (FIGS. 24A and 24B).
In Vitro Translation Assays. In vitro translation assays performed in Krebs-2 cell extracts were supplemented with 5 mM MgCl2, 30 mM Tris-HCl (pH 7.5), 1.5 mM ATP, 0.1 mM GTP, 0.6 mM CTP, 10 mM dipotassium creatine phosphate, 80 μg/mL creatine kinase, and 0.04 mM amino acids. The specified mRNA reporters were added to each reaction at a final concentration of 10 ng/μL. The translation reactions were incubated with or without compound for 60 minutes at 30° C. prior to the measurement of luciferase activities.
FIGS. 23A-23C. The presence of polypurines bases in mRNA 5′ leader regions are not universal predictors of rocaglate-responsiveness. FIG. 23A. Schematic diagram of FF/HCV/Ren mRNA reporters containing cap-proximal (AG) or (UC) dinucleotide repeats. 23B. Firefly and renilla luciferase activity in response to the indicated CR-1-31-B (23) concentrations (relative to DMSO controls) in Krebs-2 extracts programmed with 4 ng/uL of the indicated mRNAs. n=3±SD. 23C. Dose response of the indicated compounds in Krebs-2 extracts programmed with 4 ng/μL of the indicated mRNAs. n=3± SD.
FIG. 23. Dose-response of (AG)10- and (UC)10-FF/HCV/Ren mRNAs to CMLD011167, hippuristanol and pateamine A in vitro. Firefly and renilla luciferase activity in response to the indicated compound concentrations (relative to DMSO controls) in Krebs-2 extracts programmed with 4 ng/μL of the indicated mRNAs. n=3± SD.

eIF4F = target: T1, eIF4F (Mus musculus, UniProt P60843); assay: trans-inhibition and eIF4F rescue in Krebs-2 translation extracts; format: biochemical; conditions: for effect of added eIF4F on compound-induced inhibition (in words): 100 nM compound, eIF4F 10 nM; for effect of m7GpppG-(AG)10 competitor RNA on (UC)10-FF/HCV/Ren translation (in words): 25-fold molar excess competitor
T1 construct: endogenous in cells; host or cells: Krebs-2 cell-free translation extract
T1 sequence (P60843 2-406 limits assumed): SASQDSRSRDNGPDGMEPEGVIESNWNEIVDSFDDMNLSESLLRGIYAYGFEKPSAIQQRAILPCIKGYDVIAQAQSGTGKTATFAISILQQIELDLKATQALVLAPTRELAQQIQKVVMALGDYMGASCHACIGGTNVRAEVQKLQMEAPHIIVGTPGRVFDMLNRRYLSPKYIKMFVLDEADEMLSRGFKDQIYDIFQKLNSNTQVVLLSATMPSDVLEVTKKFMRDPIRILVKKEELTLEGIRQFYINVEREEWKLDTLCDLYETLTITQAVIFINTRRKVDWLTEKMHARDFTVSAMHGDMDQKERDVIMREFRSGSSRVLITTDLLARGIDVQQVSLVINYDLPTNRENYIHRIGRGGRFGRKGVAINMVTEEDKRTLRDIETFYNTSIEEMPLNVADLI
T1 sequence (P63073 2-217 partner limits assumed): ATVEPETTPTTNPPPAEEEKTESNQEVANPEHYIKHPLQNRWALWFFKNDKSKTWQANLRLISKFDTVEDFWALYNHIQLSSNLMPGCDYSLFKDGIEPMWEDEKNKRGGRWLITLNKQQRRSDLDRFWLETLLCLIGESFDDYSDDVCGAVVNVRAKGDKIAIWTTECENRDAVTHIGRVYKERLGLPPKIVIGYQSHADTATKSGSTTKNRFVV
T1 sequence (Q6NZJ6 whole entry partner): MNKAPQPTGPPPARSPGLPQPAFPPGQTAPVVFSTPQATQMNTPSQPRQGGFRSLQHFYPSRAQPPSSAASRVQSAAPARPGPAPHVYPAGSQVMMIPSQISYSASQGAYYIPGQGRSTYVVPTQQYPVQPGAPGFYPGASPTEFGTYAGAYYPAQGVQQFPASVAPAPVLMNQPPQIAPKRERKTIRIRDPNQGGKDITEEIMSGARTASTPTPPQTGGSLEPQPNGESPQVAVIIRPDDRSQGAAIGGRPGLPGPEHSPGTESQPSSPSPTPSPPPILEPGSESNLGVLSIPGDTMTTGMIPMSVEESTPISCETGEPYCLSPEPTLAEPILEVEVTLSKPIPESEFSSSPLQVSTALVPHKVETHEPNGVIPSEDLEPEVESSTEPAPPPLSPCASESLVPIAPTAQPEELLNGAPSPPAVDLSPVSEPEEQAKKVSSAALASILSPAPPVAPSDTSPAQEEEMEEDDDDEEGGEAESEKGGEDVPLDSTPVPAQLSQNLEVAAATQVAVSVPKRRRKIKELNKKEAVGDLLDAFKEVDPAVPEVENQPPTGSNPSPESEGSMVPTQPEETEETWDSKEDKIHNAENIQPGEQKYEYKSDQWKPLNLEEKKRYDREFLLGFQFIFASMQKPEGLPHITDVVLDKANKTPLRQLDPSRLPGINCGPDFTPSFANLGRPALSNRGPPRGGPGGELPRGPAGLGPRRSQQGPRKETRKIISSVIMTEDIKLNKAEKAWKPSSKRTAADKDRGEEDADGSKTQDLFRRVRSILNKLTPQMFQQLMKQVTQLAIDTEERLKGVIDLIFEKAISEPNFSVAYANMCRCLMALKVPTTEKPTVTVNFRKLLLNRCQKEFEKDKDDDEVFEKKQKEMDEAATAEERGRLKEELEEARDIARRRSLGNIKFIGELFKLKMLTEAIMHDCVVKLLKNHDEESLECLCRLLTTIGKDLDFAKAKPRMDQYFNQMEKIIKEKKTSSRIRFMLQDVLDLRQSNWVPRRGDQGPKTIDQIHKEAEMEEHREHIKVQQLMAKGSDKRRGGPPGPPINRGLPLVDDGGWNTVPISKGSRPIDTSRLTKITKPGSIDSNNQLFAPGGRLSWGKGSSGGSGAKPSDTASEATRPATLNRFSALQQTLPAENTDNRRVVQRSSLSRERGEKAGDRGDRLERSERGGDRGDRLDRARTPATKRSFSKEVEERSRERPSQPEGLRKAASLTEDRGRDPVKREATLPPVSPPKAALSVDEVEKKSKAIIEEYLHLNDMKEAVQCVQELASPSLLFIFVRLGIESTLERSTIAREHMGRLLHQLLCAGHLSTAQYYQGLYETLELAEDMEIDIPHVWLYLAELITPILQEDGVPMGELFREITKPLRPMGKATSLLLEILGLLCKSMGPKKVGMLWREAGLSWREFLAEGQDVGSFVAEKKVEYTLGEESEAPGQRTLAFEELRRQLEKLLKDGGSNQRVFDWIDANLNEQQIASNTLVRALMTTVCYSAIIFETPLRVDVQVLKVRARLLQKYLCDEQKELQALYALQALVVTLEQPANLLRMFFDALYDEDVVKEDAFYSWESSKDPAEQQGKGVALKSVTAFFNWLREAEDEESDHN
Description: In addition to a primary effect on translation of the target mRNA to which eIF4F is clamped by the rocaglate, this retention is predicted to lead to a reduction in the limiting eIF4F pool available for ribosome recruitment and could exert a trans-inhibitory effect on mRNAs that are not directly-targeted by rocaglates (i.e., absence of polypurine regions in their 5′ leader regions). To test this, we programmed in vitro translation reactions with (UC)10-FF/HCV/Ren mRNA which we found to be unresponsive to CR-1-31-B (23) and RocA (2) (FIG. 22). These were then supplemented with a 25-fold molar excess m^7GpppG-(AG)10 (SEQ ID NO: 10) or ApppG-(AG)10 (SEQ ID NO: 11) competitor RNA (FIG. 30B). […] In contrast, addition of ApppG-(AG)10 (SEQ ID NO: 11) and CR-1-31-B (23) or RocA (2) had little impact on translation of (UC)10-FF/HCV/Ren mRNA, indicating this to be a cap-dependent phenomenon (FIG. 30C, blue dotted line). If rocaglates decrease the pool of active eIF4F complexes, we posit that the addition of eIF4F to translation extracts should rescue rocaglate-mediated inhibition.
FIGS. 30A-30B. Rocaglates exert effects on eIF4F activity. 30A. RPDs performed with m^7GpppG-capped RNA incubated in the presence of retic lysate and either vehicle or 500 nM rocaglate. 30B. Schematic diagram showing assay assessing trans-inhibition of rocaglates. 30C. The presence of m^7GpppG capped, but not ApppG capped, purine-rich RNAs sensitizes the rocaglate-unresponsive m^7GpppG(UC)10-FF/HCV/Ren reporter to inhibition. Translation reactions were performed in Krebs-2 extracts with 10 nM of m^7GpppG(UC)10-FF/HCV/Ren reporter and 250 nM of competitor RNA. Reactions were incubated at 30° C. for 60 min prior to luciferase measurement. n=3±SD. 30D. The addition of recombinant eIF4F rescues rocaglate mediated translation inhibition. The m^7GpppG(AG)10-FF/HCV/Ren reporter was added to Krebs-2 translation extracts in the presence eIF4F and 100 nM of the indicated compound. Reactions were incubated at 30° C. for 60 min prior to luciferase measurement. n≥3, ±SEM

| Structure (SMILES) | inhibition of (AG)10 versus (UC)10 reporter in vitro (in words) [1] | effect of added eIF4F on compound-induced inhibition (in words) (eIF4F) | effect of m7GpppG-(AG)10 competitor RNA on (UC)10-FF/HCV/Ren translation (in words) (eIF4F) |
| --- | --- | --- | --- |
| COC(=O)[C@@H]1[C@@H](c2ccccc2)[C@]2(c3ccc(OC)cc3)Oc3cc(OC)cc(OC)c3[C@@]23N=C(C)N[C@@]13O [9b] | equally inhibited translation of both (AG)10 and (UC)10 reporters | – | – |
| CONC(=O)[C@H]1[C@@H](O)[C@@]2(O)c3c(OC)cc(OC)cc3O[C@@]2(c2ccc(OC)cc2)[C@@H]1c1ccccc1 [CR-1-31-B] | inhibited cap-dependent translation (FLuc) from only the (AG)10-containing mRNA | partially rescue | sensitized (UC)10-FF/HCV/Ren mRNA to inhibition |
| COc1ccc([C@@]23Oc4cc(OC)cc(OC)c4[C@]2(O)[C@H](O)[C@H](C(=O)N(C)C)[C@H]3c2ccccc2)cc1 [RocA, rocaglamide A] | inhibited cap-dependent translation (FLuc) from only the (AG)10-containing mRNA | – | sensitized (UC)10-FF/HCV/Ren mRNA to inhibition |
| COC(=O)[C@H]1[C@@H](O)[C@@]2(O)c3c(OC)cc(O[C@@H]4O[C@@H]([C@H](O)CO)CO[C@H]4OC)cc3O[C@@]2(c2ccc(OC)cc2)[C@@H]1c1ccccc1 [silvestrol] | equally inhibited both mRNA reporters | partially rescue | – |
